Data on 11 compounds can be found in ChEMBL document CHEMBL1201862, “PubChem BioAssay data set” (2004).

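Tested at 5 concentrations; 48 h exposure; 96-well plates; endpoints linearly interpolated, else capped at highest concentration. Here, GI50 denotes the concentration required for 50% inhibition of growth.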 Activity calls are given as the source filed them. Rule as the data show it: active = GI50 up to about 1.1 µM and inactive = higher.

Some test systems named below: A498; ACHN; HCT-15; HL-60; IGROV-1; K562; MDA-MB-435; MDA-N; NCI-H23; OVCAR-3; OVCAR-4; OVCAR-5; PC-3; SK-MEL-2; SW-620; TK-10; UACC-62; UO-31; EKVX; SR.
Common to all, as to experiment: NCI tumour cell line growth inhibition, 48 h

`O=C1C=C(O)C(=O)c2c(O)ccc(O)c21`: the GI50 with A498 is > 100 µM (inactive); with ACHN it was > 100 µM (inactive); in the assay with HCT-15, more than 100 µM; with HL-60, 58.5 µM (inactive); in the assay on IGROV-1, > 100 µM (inactive); with K562, > 100 µM (inactive). The GI50 in the assay with MDA-MB-435, in the assay on MDA-N, in the assay on NCI-H23, in the assay with OVCAR-3, in the assay on OVCAR-4 and with OVCAR-5 was > 100 µM (inactive) each time. Moreover, the GI50 in the assay with PC-3, with SK-MEL-2, in the assay with SW-620, with TK-10, in the assay with UACC-62 and in the assay with UO-31 was > 100 µM (inactive) each time.

Take `Clc1cc2ccccc2c2ccccc12`: the GI50 is > 100 µM (inactive) in the assay on A498; 82.2 µM (inactive) in the assay with ACHN; 41.5 µM (inactive) in the assay on EKVX; 25.6 µM with HCT-15; 35.2 µM (inactive) in the assay with HL-60; 64 µM (inactive) in the assay with IGROV-1. The GI50 is 42.1 µM (inactive) with K562; 28.2 µM (inactive) in the assay on MDA-MB-435; 81.5 µM (inactive) with NCI-H23; 52.2 µM (inactive) with OVCAR-3; 42.1 µM (inactive) with OVCAR-4; > 100 µM (inactive) with OVCAR-5. The GI50 in the assay on PC-3 is 50.2 µM (inactive); in the assay on SK-MEL-2, 27.5 µM (inactive); in the assay on SR it was 30.8 µM (inactive); in the assay on SW-620, 90.6 µM (inactive); in the assay on TK-10, > 100 µM (inactive); with UACC-62, 62.4 µM (inactive). Further, the GI50 with UO-31 was 97.3 µM (inactive).

Regarding `CSc1[nH]cnc1C(N)=S`, the GI50 in the assay on A498, with ACHN, with EKVX, in the assay on HL-60, in the assay on IGROV-1 and in the assay on MDA-MB-435 was > 100 µM (inactive) in each case. The GI50 with MDA-N, with NCI-H23, with OVCAR-3, in the assay on OVCAR-5, in the assay on PC-3 and with SK-MEL-2 was > 100 µM (inactive) each time. The GI50 with SW-620, with TK-10, in the assay on UACC-62 and in the assay on UO-31 was > 100 µM (inactive) in each case.

`NC(=O)c1sc2nc3ccccc3n2c1N`: the GI50 in the assay on A498 was 63.1 µM (inactive); with ACHN it was 59.8 µM (inactive); in the assay on EKVX it was 67.5 µM (inactive); with HCT-15, more than 100 µM; in the assay on HL-60, > 100 µM (inactive); in the assay with IGROV-1, 51.5 µM (inactive). The GI50 was > 100 µM (inactive) in the assay on MDA-MB-435; > 100 µM (inactive) in the assay with MDA-N; 17.4 µM (inactive) in the assay on NCI-H23; > 100 µM (inactive) in the assay with OVCAR-3; > 100 µM (inactive) with OVCAR-4; > 100 µM (inactive) in the assay with OVCAR-5. The GI50 with PC-3 is > 100 µM (inactive); in the assay on SK-MEL-2, 30.2 µM (inactive); with SW-620, > 100 µM (inactive); in the assay on TK-10 it was 42.7 µM (inactive); with UACC-62, 20 µM (inactive); in the assay with UO-31, > 100 µM (inactive).

Take `COc1ccc(-c2cc3c(nn2)-c2ccccc2C3=O)cc1`: the GI50 was > 10 µM (inactive) in the assay on A498; > 10 µM (inactive) in the assay with ACHN; > 10 µM (inactive) with EKVX; more than 10 µM with HCT-15; > 10 µM (inactive) in the assay on HL-60; > 10 µM (inactive) with IGROV-1. The GI50 with K562, in the assay with MDA-MB-435, with MDA-N, in the assay with NCI-H23, in the assay on OVCAR-3 and in the assay on OVCAR-4 was > 10 µM (inactive) in each case. For the same compound, the GI50 in the assay on OVCAR-5, in the assay with PC-3, with SK-MEL-2, with SW-620, in the assay on TK-10 and in the assay with UACC-62 was > 10 µM (inactive) in each case. In the assay with UO-31, the GI50 is > 10 µM (inactive).

Take `C[n+]1c(-c2ccccc2)cc2/c(=C\c3ccccc3)c3ccccc3n21`: the GI50 in the assay with A498 is 6.32 µM (inactive); in the assay on ACHN it was 3.13 µM (inactive); with EKVX it was 1.93 µM (inactive); with HCT-15, 3.47 µM; in the assay with HL-60, 0.0452 µM (active); in the assay with IGROV-1, 1.09 µM (active). The GI50 is 7.03 µM (inactive) in the assay with K562; 0.726 µM (active) with MDA-MB-435; 0.948 µM (active) with MDA-N; 2.68 µM (inactive) with NCI-H23; 1.34 µM (inactive) in the assay with OVCAR-3; 1.62 µM (inactive) in the assay on OVCAR-4. Besides, the GI50 with OVCAR-5 was 3.4 µM (inactive); with PC-3 it was 0.918 µM (active); with SK-MEL-2, 0.832 µM (active); in the assay on SW-620, 1.06 µM (active); in the assay with TK-10, 2.72 µM (inactive); in the assay with UACC-62, 1.3 µM (inactive). For the same compound, the GI50 in the assay with UO-31 is 2.95 µM (inactive).

In the case of `COC(=O)[C@@H]1[C@H](O)CCC2=C(CC(=O)c3ccoc3)[C@H](C)CC[C@]21C`, the GI50 in the assay with A498 was > 50 µM (inactive); in the assay on ACHN it was > 50 µM (inactive); with EKVX, > 50 µM (inactive); with HCT-15 it was 46.1 µM; with IGROV-1 it was > 50 µM (inactive); in the assay on K562, 16.8 µM (inactive). For the same compound, the GI50 is 24.5 µM (inactive) in the assay with MDA-N; 30.3 µM (inactive) in the assay with NCI-H23; 26.2 µM (inactive) in the assay with OVCAR-3; 45 µM (inactive) in the assay on OVCAR-4; > 50 µM (inactive) in the assay on OVCAR-5; 23.4 µM (inactive) with PC-3. Moreover, the GI50 was > 50 µM (inactive) in the assay on SK-MEL-2; 36.9 µM (inactive) with SW-620; > 50 µM (inactive) with TK-10; 25.4 µM (inactive) with UACC-62; 19.5 µM (inactive) in the assay on UO-31.

Consider `Cc1ccc(Nc2n[nH]c(=S)s2)cc1C`, for which the GI50 in the assay on A498 is 58.7 µM (inactive); in the assay on ACHN, > 100 µM (inactive); in the assay on EKVX it was > 100 µM (inactive); with HCT-15, 60.4 µM; in the assay on HL-60, 71.1 µM (inactive); in the assay with IGROV-1, > 100 µM (inactive). Further, the GI50 was 64.1 µM (inactive) with K562; 53.5 µM (inactive) in the assay on MDA-MB-435; 40.6 µM (inactive) in the assay with MDA-N; > 100 µM (inactive) in the assay on NCI-H23; > 100 µM (inactive) with OVCAR-3; 89.9 µM (inactive) in the assay on OVCAR-4. In addition, the GI50 in the assay with OVCAR-5, in the assay with PC-3, in the assay on SK-MEL-2, with SW-620, with TK-10 and in the assay with UACC-62 was > 100 µM (inactive) throughout. Also, the GI50 in the assay with UO-31 is > 100 µM (inactive).

For the compound `C/C(=C\CO)CC[C@@H]1[C@@]2(C)CCCC(C)(C)[C@@H]2CC[C@@]1(C)O`, the GI50 in the assay on A498 was 17 µM (inactive); in the assay with ACHN, 34.2 µM (inactive); in the assay on EKVX, 24.8 µM (inactive); in the assay on HCT-15, 17.3 µM; in the assay with HL-60, 20.5 µM (inactive); in the assay with IGROV-1, 17 µM (inactive). Moreover, the GI50 in the assay on K562 is 16.5 µM (inactive); with MDA-MB-435, 18.3 µM (inactive); with MDA-N, 18.7 µM (inactive); in the assay on NCI-H23 it was 20.5 µM (inactive); in the assay on OVCAR-3, 13.9 µM (inactive); with OVCAR-4, 17.3 µM (inactive). Also, the GI50 in the assay on OVCAR-5 was 23.1 µM (inactive); in the assay on PC-3, 16.4 µM (inactive); with SK-MEL-2, 17.6 µM (inactive); with SW-620 it was 22.7 µM (inactive); with TK-10, 17.5 µM (inactive); in the assay on UACC-62, 14.1 µM (inactive). For the same compound, in the assay with UO-31, the GI50 was 23.4 µM (inactive).

In the case of `COc1c(O)cc2c(c1O)C(=O)C1=C(CCCC1)C2=O`, the GI50 in the assay on A498 is 17.9 µM (inactive); in the assay with ACHN, 23 µM (inactive); with EKVX, 22.6 µM (inactive); with HCT-15, 26.1 µM; with HL-60 it was 8.24 µM (inactive); with IGROV-1, 12.6 µM (inactive). Moreover, the GI50 with MDA-MB-435 is 26.9 µM (inactive); with NCI-H23, 15.5 µM (inactive); with OVCAR-3 it was 20.3 µM (inactive); in the assay with OVCAR-4 it was 21.6 µM (inactive); in the assay with OVCAR-5, 38.4 µM (inactive); with PC-3, 22.8 µM (inactive). In addition, the GI50 in the assay on SK-MEL-2 is 37.6 µM (inactive); with SR, 10.8 µM (inactive); with SW-620, 27.4 µM (inactive); in the assay with TK-10 it was 34.3 µM (inactive); with UACC-62, 20.3 µM (inactive); in the assay with UO-31 it was 7.24 µM (inactive).

In the case of `COc1cc2c(cc1OCCCCN1C(=O)c3cccc4cccc(c34)C1=O)N=C[C@@H]1CCCN1C2=O`, the GI50 with A498 is 7.66 µM (inactive); with ACHN, 2.22 µM (inactive); with EKVX, 17.1 µM (inactive); with HCT-15, 3.99 µM; with IGROV-1, 2.07 µM (inactive); in the assay on K562, 4.15 µM (inactive). Besides, the GI50 with MDA-MB-435 was 3.83 µM (inactive); with MDA-N it was 2.31 µM (inactive); in the assay on NCI-H23, 3.74 µM (inactive); with OVCAR-3 it was 3.4 µM (inactive); with OVCAR-4, 3.27 µM (inactive); with OVCAR-5 it was 4.95 µM (inactive). Moreover, the GI50 in the assay with PC-3 was 5.27 µM (inactive); in the assay with SK-MEL-2 it was 3.47 µM (inactive); in the assay with SW-620, 4.92 µM (inactive); with TK-10, 2.47 µM (inactive); in the assay on UACC-62, 3.47 µM (inactive); in the assay on UO-31, 1.68 µM (inactive).
